# Data from patent US10100097B2, “GIP-GLP-1 dual agonist compounds and methods” (Zealand Pharma A/S, priority 2012, dated 2018).
# Square brackets hold non-standard residues; d marks the D form. Peptide text beside a SMILES is read from it. Aib = CC(C)(N)C(=O)O
# Biological target: T1, human GLP-1 R (Homo sapiens, UniProt P43220)
# T1 construct: expressed in transfected cells
# Experiment: Human GLP-1 receptor (GLP-1 R) activity assay, cAMP induction (AlphaScreen cAMP kit)
# Format: cell-based
# Conditions: HEK293 cells expressing the human GLP-1 R, 15 min at 37° C., average values of multiple determinations, read-out: GLP1 R (EC50 in nM)
# Procedure: Human GIP Receptor (GIP R) and GLP-1 Receptor (GLP-1 R) Activity Assay
# In vitro effects of peptide conjugates of the invention were assessed by measuring the induction of cAMP following stimulation of the respective receptor by GIP, GLP1 or analogues of these, as outlined in the invention, using the AlphaSceen® cAMP kit from Perkin-Elmer according to instructions. Briefly. HEK293 cells expressing the human GIP R or GLP-1 R (stable cell lines generated through transfection of the cDNA for human GIP R or GLP-1 and selection of stable clones) were seeded at 30,000 cells/well in 96-well microtiter plates coated with 0.01% poly-L-lysine, and grown for 1 day in culture in 200 μl growth medium (DMEM, 10% FCS, Penicillin (100 IU/ml), Streptomycin (100 μg/ml)). On the day of analysis, growth medium was removed and the cells were washed once with […] Tyrode's buffer (Tyrode's Salts (9.6 g/1), 10 mM HEPES, pH 7.4). […] The Assay buffer was removed and cells are lysed in 80 μl Lysis buffer (0.1% w/v BSA, 5 mM HEPES, 0.3% v/v Tween-20) per well. From each well 10 μl lysed cells was transferred to a 384-well plate and mixed with 15 μl bead-mix (1 Unit/15 μl anti-cAMP Acceptor Beads, 1 Unit/15 μl Donor Beads, and 1 Unit/15 μl Biotinylated cAMP in Assay Buffer). The plates were mixed and incubated in the dark for an hour at room temperature before measuring using an Envision™ plate reader (Perkin-Elmer).
# T1 sequence (P43220 24-463): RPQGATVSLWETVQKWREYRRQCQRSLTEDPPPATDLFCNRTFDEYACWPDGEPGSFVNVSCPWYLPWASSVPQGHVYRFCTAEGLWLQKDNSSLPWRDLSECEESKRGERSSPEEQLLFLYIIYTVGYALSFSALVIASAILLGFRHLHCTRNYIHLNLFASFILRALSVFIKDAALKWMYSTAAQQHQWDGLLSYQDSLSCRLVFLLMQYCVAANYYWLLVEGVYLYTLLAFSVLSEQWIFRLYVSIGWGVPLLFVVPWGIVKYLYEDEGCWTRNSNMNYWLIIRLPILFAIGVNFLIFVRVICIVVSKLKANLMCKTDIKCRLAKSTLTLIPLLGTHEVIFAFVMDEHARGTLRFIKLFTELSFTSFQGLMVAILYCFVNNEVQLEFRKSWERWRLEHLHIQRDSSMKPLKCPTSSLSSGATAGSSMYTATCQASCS
row,EC50 [nM],SMILES
1,0.01,CC[C@H](C)[C@H](NC(=O)[C@H](CO)NC(=O)[C@H](Cc1ccc(O)cc1)NC(=O)[C@H](CC(=O)O)NC(=O)[C@H](CO)NC(=O)[C@@H](NC(=O)[C@H](Cc1ccccc1)NC(=O)[C@@H](NC(=O)CNC(=O)[C@H](CCC(=O)O)NC(=O)C(C)(C)NC(=O)[C@@H](N)Cc1ccc(O)cc1)[C@@H](C)O)[C@@H](C)O)C(=O)N[C@@H](C)C(=O)N[C@@H](CC(C)C)C(=O)N[C@@H](CC(=O)O)C(=O)N[C@@H](CCCCN)C(=O)N[C@@H](CCCCN)C(=O)N[C@@H](C)C(=O)N[C@@H](CCC(N)=O)C(=O)N[C@@H](CCCNC(=N)N)C(=O)N[C@@H](C)C(=O)N[C@@H](Cc1ccccc1)C(=O)N[C@H](C(=O)N[C@@H](CC(N)=O)C(=O)N[C@@H](Cc1c[nH]c2ccccc12)C(=O)N[C@@H](CC(C)C)C(=O)N[C@@H](CC(C)C)C(=O)N[C@@H](C)C(=O)NC(C)(C)C(=O)N[C@@H](CCCCN)C(N)=O)C(C)C [Compound 12] (H-Y[Aib]EGTFTSDYSIALDKKAQRAFVNWLLA[Aib]K-NH2)
2,0.0087,CC[C@H](C)[C@H](NC(=O)[C@H](CO)NC(=O)[C@H](Cc1ccc(O)cc1)NC(=O)[C@H](CC(=O)O)NC(=O)[C@H](CO)NC(=O)[C@@H](NC(=O)[C@H](Cc1ccccc1)NC(=O)[C@@H](NC(=O)CNC(=O)[C@H](CCC(=O)O)NC(=O)C(C)(C)NC(=O)[C@@H](N)Cc1ccc(O)cc1)[C@@H](C)O)[C@@H](C)O)C(=O)N[C@@H](Cc1ccc(O)cc1)C(=O)N[C@@H](CC(C)C)C(=O)N[C@@H](CCC(=O)O)C(=O)N[C@@H](CCCCN)C(=O)N[C@@H](CCCCN)C(=O)N[C@@H](C)C(=O)N[C@@H](CCC(N)=O)C(=O)N[C@@H](CCCNC(=N)N)C(=O)N[C@@H](C)C(=O)N[C@@H](Cc1ccccc1)C(=O)N[C@H](C(=O)N[C@@H](CC(N)=O)C(=O)N[C@@H](Cc1c[nH]c2ccccc12)C(=O)N[C@@H](CC(C)C)C(=O)N[C@@H](CC(C)C)C(=O)N[C@@H](C)C(=O)NC(C)(C)C(=O)N[C@@H](CCCCN)C(N)=O)C(C)C [Compound 14] (H-Y[Aib]EGTFTSDYSIYLEKKAQRAFVNWLLA[Aib]K-NH2)
3,0.01,CC[C@H](C)[C@H](NC(=O)[C@H](CO)NC(=O)[C@H](Cc1ccc(O)cc1)NC(=O)[C@H](CC(=O)O)NC(=O)[C@H](CO)NC(=O)[C@@H](NC(=O)[C@H](Cc1ccccc1)NC(=O)[C@@H](NC(=O)CNC(=O)[C@H](CCC(=O)O)NC(=O)C(C)(C)NC(=O)[C@@H](N)Cc1ccc(O)cc1)[C@@H](C)O)[C@@H](C)O)C(=O)N[C@@H](C)C(=O)N[C@@H](CC(C)C)C(=O)N[C@@H](CCC(=O)O)C(=O)N[C@@H](CCCCN)C(=O)N[C@@H](CCCCN)C(=O)N[C@@H](C)C(=O)N[C@@H](CCC(N)=O)C(=O)N[C@@H](CCCNC(=N)N)C(=O)N[C@@H](C)C(=O)N[C@@H](Cc1ccccc1)C(=O)N[C@H](C(=O)N[C@@H](CC(N)=O)C(=O)N[C@@H](Cc1c[nH]c2ccccc12)C(=O)N[C@@H](CC(C)C)C(=O)N[C@@H](CC(C)C)C(=O)N[C@@H](C)C(=O)NC(C)(C)C(=O)N[C@@H](CCCCN)C(N)=O)C(C)C [Compound 15] (H-Y[Aib]EGTFTSDYSIALEKKAQRAFVNWLLA[Aib]K-NH2)
4,0.015,CC[C@H](C)[C@H](NC(=O)[C@H](CO)NC(=O)[C@H](Cc1ccc(O)cc1)NC(=O)[C@H](CC(=O)O)NC(=O)[C@H](CO)NC(=O)[C@@H](NC(=O)[C@H](Cc1ccccc1)NC(=O)[C@@H](NC(=O)CNC(=O)[C@H](CCC(=O)O)NC(=O)C(C)(C)NC(=O)[C@@H](N)Cc1ccc(O)cc1)[C@@H](C)O)[C@@H](C)O)C(=O)N[C@@H](Cc1ccc(O)cc1)C(=O)N[C@@H](CC(C)C)C(=O)N[C@@H](CC(=O)O)C(=O)N[C@@H](CO)C(=O)N[C@@H](CCCCN)C(=O)N[C@@H](C)C(=O)N[C@@H](CCCCN)C(=O)N[C@@H](CCCNC(=N)N)C(=O)N[C@@H](C)C(=O)N[C@@H](Cc1ccccc1)C(=O)N[C@H](C(=O)N[C@@H](CC(N)=O)C(=O)N[C@@H](Cc1c[nH]c2ccccc12)C(=O)N[C@@H](CC(C)C)C(=O)N[C@@H](CC(C)C)C(=O)N[C@@H](C)C(=O)NC(C)(C)C(=O)N[C@@H](CCCCN)C(N)=O)C(C)C [Compound 18] (H-Y[Aib]EGTFTSDYSIYLDSKAKRAFVNWLLA[Aib]K-NH2)
5,0.009,CC[C@H](C)[C@H](NC(=O)[C@H](CO)NC(=O)[C@H](Cc1ccc(O)cc1)NC(=O)[C@H](CC(=O)O)NC(=O)[C@H](CO)NC(=O)[C@@H](NC(=O)[C@H](Cc1ccccc1)NC(=O)[C@@H](NC(=O)CNC(=O)[C@H](CCC(=O)O)NC(=O)C(C)(C)NC(=O)[C@@H](N)Cc1ccc(O)cc1)[C@@H](C)O)[C@@H](C)O)C(=O)N[C@@H](Cc1ccc(O)cc1)C(=O)N[C@@H](CC(C)C)C(=O)N[C@@H](CC(=O)O)C(=O)N[C@@H](CCCCN)C(=O)N[C@@H](CCCCN)C(=O)N[C@@H](C)C(=O)N[C@@H](CCC(N)=O)C(=O)N[C@@H](CCCNC(=N)N)C(=O)N[C@@H](C)C(=O)N[C@@H](Cc1ccccc1)C(=O)N[C@H](C(=O)N[C@@H](CCCCN)C(=O)N[C@@H](Cc1c[nH]c2ccccc12)C(=O)N[C@@H](CC(C)C)C(=O)N[C@@H](CC(C)C)C(=O)N[C@@H](C)C(=O)NC(C)(C)C(=O)N[C@@H](CCCCN)C(N)=O)C(C)C [Compound 20] (H-Y[Aib]EGTFTSDYSIYLDKKAQRAFVKWLLA[Aib]K-NH2)
6,0.009,CC[C@H](C)[C@H](NC(=O)[C@H](CO)NC(=O)[C@H](Cc1ccc(O)cc1)NC(=O)[C@H](CC(=O)O)NC(=O)[C@H](CO)NC(=O)[C@@H](NC(=O)[C@H](Cc1ccccc1)NC(=O)[C@@H](NC(=O)CNC(=O)[C@H](CCC(=O)O)NC(=O)C(C)(C)NC(=O)[C@@H](N)Cc1ccc(O)cc1)[C@@H](C)O)[C@@H](C)O)C(=O)N[C@@H](Cc1ccc(O)cc1)C(=O)N[C@@H](CC(C)C)C(=O)N[C@@H](CC(=O)O)C(=O)N[C@@H](CCCCN)C(=O)N[C@@H](CCCCN)C(=O)N[C@@H](C)C(=O)N[C@@H](CCC(N)=O)C(=O)N[C@@H](CCCNC(=N)N)C(=O)N[C@@H](C)C(=O)N[C@@H](Cc1ccccc1)C(=O)N[C@H](C(=O)N[C@@H](CC(N)=O)C(=O)N[C@@H](Cc1c[nH]c2ccccc12)C(=O)N[C@@H](CC(C)C)C(=O)N[C@H](C(=O)N[C@@H](C)C(=O)NC(C)(C)C(=O)N[C@@H](CCCCN)C(N)=O)C(C)C)C(C)C [Compound 21] (H-Y[Aib]EGTFTSDYSIYLDKKAQRAFVNWLVA[Aib]K-NH2)

row,SMILES,EC50 [nM]
1,CC[C@H](C)[C@H](NC(=O)[C@H](CO)NC(=O)[C@H](Cc1ccc(O)cc1)NC(=O)[C@H](CC(=O)O)NC(=O)[C@H](CO)NC(=O)[C@@H](NC(=O)[C@H](Cc1ccccc1)NC(=O)[C@@H](NC(=O)CNC(=O)[C@H](CCC(=O)O)NC(=O)C(C)(C)NC(=O)[C@@H](N)Cc1ccc(O)cc1)[C@@H](C)O)[C@@H](C)O)C(=O)NC(C)(C)C(=O)N[C@@H](CC(C)C)C(=O)N[C@@H](CC(=O)O)C(=O)N[C@@H](CCCCN)C(=O)N[C@@H](CCCCN)C(=O)N[C@@H](C)C(=O)N[C@@H](CCC(N)=O)C(=O)N[C@@H](CCCNC(=N)N)C(=O)N[C@@H](C)C(=O)N[C@@H](Cc1ccccc1)C(=O)N[C@H](C(=O)N[C@@H](CCC(=O)O)C(=O)N[C@@H](Cc1c[nH]c2ccccc12)C(=O)N[C@@H](CC(C)C)C(=O)N[C@@H](CC(C)C)C(=O)N[C@@H](C)C(=O)N[C@@H](CCC(N)=O)C(=O)NCC(=O)N1CCC[C@H]1C(=O)N[C@@H](CO)C(=O)N[C@@H](CO)C(=O)NCC(=O)N[C@@H](C)C(=O)N1CCC[C@H]1C(=O)N1CCC[C@H]1C(=O)N1CCC[C@H]1C(=O)N[C@@H](CO)C(N)=O)C(C)C [Compound 2] (H-Y[Aib]EGTFTSDYSI[Aib]LDKKAQRAFVEWLLAQGPSSGAPPPS-NH2),0.015
